Reference: patent US20100331297A1, “MODULATION OF PROTEIN TRAFFICKING” (FOLDRX PHARMACEUTICALS, INC., priority 2007, published 2010)

Key:
Format in all cases: cell-based
ΔF508 CFTR [1] = molecular target: T1, ΔF508 CFTR (Homo sapiens, UniProt P13569, DEL508-508); test: Potentiator activity, YFP halide (iodide) quenching assay in FRT cells expressing ΔF508 CFTR, 27° C. pre-incubation; set-up: expressed in transfected cells; host or cells: Fischer rat thyroid (FRT) cells; conditions: FRT cells ΔF508 CFTR/YFP, 24 hours at 27° C., compound with forskolin 30 min
Method in brief: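 FRT cells stably co-expressing ΔF508 CFTR and halide-sensitive YFP, grown 24 h at 37° C. then 24 h at 27° C. to raise surface CFTR. Compounds in PBS with forskolin, 30 min at 37° C.; iodide injected and YFP quenching (ex 485/em 530 nm) followed. EC50 from normalized endpoint fluorescence.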

ypt1^ts cells = test: Rescue of growth of ypt1^ts mutant yeast (OD600); conditions: Saccharomyces cerevisiae, read-out: Ypt1-ts MRC (Minimum Rescue Concentration), ypt1^ts cells, 35° C. and 37° C., OD600; multiple results separated by a comma
Excerpt: The activity of the compounds as modulators of protein trafficking may be measured in the assays described herein that evaluate the ability of a compound to rescue an impairment in protein trafficking. For example, the yeast mutant cell line ypt1^ts can be used to identify compounds that rescue cells from the lethal phenotype of a mutant YPT1 allele (see, e.g., Examples and Schmitt et al. (1988) Cell 53:635-47). The activity may be measured, for example, in a whole yeast cell assay using 384-well screening protocol and an optical density measurement.
The yeast mutant cell line ypt1^ts suppresses, in a temperature dependent fashion, the dominant-lethal phenotype of a mutant YPT1 allele (Schmitt et al. (1988) Cell 53:635-47). The yeast mutant cell line ypt1^ts contains an allele of YPT1 that has two point mutations: one that changes an asparagine at position 121 to a isoleucine (N121I) and another that changes an alanine at position 161 to a valine (A161V). The N121I mutation causes dominant lethality by itself, but lethality is suppressed by the second mutation, resulting in a recessive loss of function phenotype at the restrictive temperatures. ypt1^ts cells grow normally at temperatures up to 25° C., but are growth arrested at 37° C. (Id.).
Compounds were screened to assess their ability to restore growth of ypt1^ts cells. The effect of the compounds was measured on ypt1^ts cells cultured at room temperature (permissive temperature), 37° C. (non-permissive temperature), and 35° C. (semi-permissive temperature).
To determine if the test compounds could rescue the ypt1^ts mutant phenotype, ypt1^ts cells were grown overnight in synthetic complete (SC) media supplemented with 2% glucose at room temperature. Log phase cells were diluted into SC 2% glucose media to an OD600 of 0.003. 100 μL of this culture was then aliquoted into each well of 96-well flat bottom microtiter plates. 1 μL of the test compounds dissolved in DMSO (at a concentration range from 5 mM-0.005 mM) or of DMSO alone was added to each well (50 μM-0.05 μM final concentration in 1% DMSO). Plates were mixed by vortexing and incubated at 35° C. and 37° C. Compound rescue of the ypt1^ts temperature sensitive defect was assessed by measuring the OD600 (optical density at 600 nm; cell growth) of the cultures. Plates incubated at 35° C. were measured at 24 and 40 hours incubation time while plates grown at 37° C. were measured after 40 hours of incubation.
Assays monitoring the rescue of ypt1^ts mutants were performed using a vehicle, a positive control (calcium), and the compounds identified in Table II. Results in Table II corresponding to an MRC (Minimum Rescue Concentration) for ypt1^ts of greater than or equal to 50 micromolar are labeled +; of an MRC for ypt1^ts of 10-50 micromolar are labeled ++; and of an MRC for ypt1^ts of less than 10 micromolar are labeled +++. Multiple results for a particular compound are separated by a comma.

ΔF508 CFTR [2] = molecular target: T1, ΔF508 CFTR; test: Corrector activity, YFP halide (iodide) quenching assay in FRT cells expressing ΔF508 CFTR; set-up: expressed in transfected cells; host or cells: Fischer rat thyroid (FRT) cells; conditions: FRT cells ΔF508 CFTR/YFP, 24 hours with compound at 37° C., forskolin and genistein; read-out: Corrector EC50
Method in brief: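 FRT cells co-expressing ΔF508 CFTR and halide-sensitive YFP were incubated 24 h at 37° C with compounds, then stimulated 30 min at 37° C in PBS with forskolin and genistein. Endpoint fluorescence after iodide injection was normalized to initial reading; EC50 from 4-parameter fit with bottom constrained to DMSO control.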

ΔF508 CFTR [3] = molecular target: T1, ΔF508 CFTR; test: Stabilization of ΔF508 CFTR in CFBE cells (western blot, densitometry); conditions: 16 hours at 37° C., 1.25-10 μM (compound 25), 1-10 μM (compound 5)
Excerpt: In addition, efficacy of a compound can be evaluated before (first in time), concomitantly or subsequently to the above-mentioned test modalities by monitoring, e.g., (i) modulation (e.g., an improvement) of the stability of a trafficking defective protein, (ii) modulation (e.g., an improvement) of proper, physiological trafficking of the trafficking defective protein, or (iii) modulation (e.g., a restoration) in one or more functions of a trafficking defective protein. For example, in some cases, proteins (e.g., protein mutants such as ΔF508 CFTR) are prematurely degraded. Thus, the efficacy of a given compound to modulate protein trafficking can be determined by monitoring the stability of a protein in the presence as compared to the absence of the compound. For example, cells expressing a trafficking defective protein (e.g., expressing endogenously or expressing an exogenous transgene encoding a trafficking defective protein such as ΔF508 CFTR) can be cultured in the presence or absence of a compound for at least 1 hour (e.g., at least 2 hours, at least 4 hours, at least 6 hours, at least 8 hours, at least 12 hours, at least 16 hours, at least 24 hours, at least 36 hours, or at least 48 hours). Cell lysates can be prepared from the different populations of cells, suspended in Laemmli buffer (with or without reducing agent) and subjected to sodium dodecyl sulfate-polyacrylamide gel electrophoresis (SDS-PAGE). Using antibodies that specifically recognize the trafficking defective protein (e.g., CFTR), the amount of the protein in the presence as compared to in the absence of a compound can be determined by western or dot-blotting techniques. […] Where a modified state (e.g., glycosylation or phosphorylation) of a protein is indicative of increased stability, a change in the modified state of a protein can also be used to determine if a compound stabilizes the trafficking defective protein. For example, the amount of glycosylated CFTR (e.g., ΔF508 CFTR) can be assessed in the presence as compared to the absence of a compound.
The compounds can be tested for their ability to stabilize ΔF508 CTFR. CFBE cells, a cell line generated by transformation of cystic fibrosis tracheo-bronchial cells (ΔF508 CTFR homozygous) with SV40 (Bruscia et al. (2002) Gene Ther. 9(11):683-685), can be cultured with 10 μM of the selected compounds, or 10 μM VRT-325 for 16 hours at 37° C. (VRT-325 is described in, e.g., Van Goor et al. (2006) Am. J. Physiol. Lung Cell Mol. Physiol. 290:L1117-L1130). A population of cells can also be cultured with the dimethyl sulfoxide (DMSO) solvent as a control.
Following incubation, cells were lysed, solubilized in Laemmli buffer, and subjected to SDS-PAGE. CFTR protein were visualized by western blotting using an antibody specific for CFTR. Culturing CFBE cells with compound 25 (see Table I for structure) increased the amount of cellular ΔF508 CFTR protein.
The effect of different concentrations of compound 25 on ΔF508 CFTR was tested in a dose response experiment. […] The relative amounts of glysosylated and unglycosylated ΔF508 CFTR protein were visualized by western blotting (FIG. 10A), and the band intensities wer quantitated by scanning and densitometry (FIG. 10B). […] The relative amounts of glysosylated and unglycosylated ΔF508 CFTR protein were visualized by western blotting (FIG. 11A), and the band intensities wer quantitated by scanning and densitometry (FIG. 11B).

TS217 cells = test: Rescue of cell viability from α-synuclein-induced cytotoxicity (cellular ATP, […]); conditions: tetracycline 5 days, 3 μM concentration, P<0.02
Description: Treatment of TS217 cells with 0.1 μg/mL tetracycline for three to six days induces expression of α-synuclein, which can be cytotoxic. […] After the five day treatment, cells were lysed and assayed for intracellular ATP concentration as a function of cell viability. The relative viability of the cells was assessed by measuring the cellular ATP level in cell lysates using a […]® Plus Bioassay kit (Cambrex, Rockland, Me.). Relative cell viability was calculated as the ratio of induced cells to control cells (cells not treated with tetracycline), as an indication of α-synuclein-induced cytotoxicity. […] By contrast, cells treated with compound 90 at 3 μM concentration reduced the α-synuclein-induced cytotoxicity by 45% (P<0.02) as compared to the control wells lacking the compound. Thus, compound 90 rescues cell viability from α-synuclein-induced cytotoxicity.

T1 sequence (P13569 with tags, fused parts or gaps DEL508-508): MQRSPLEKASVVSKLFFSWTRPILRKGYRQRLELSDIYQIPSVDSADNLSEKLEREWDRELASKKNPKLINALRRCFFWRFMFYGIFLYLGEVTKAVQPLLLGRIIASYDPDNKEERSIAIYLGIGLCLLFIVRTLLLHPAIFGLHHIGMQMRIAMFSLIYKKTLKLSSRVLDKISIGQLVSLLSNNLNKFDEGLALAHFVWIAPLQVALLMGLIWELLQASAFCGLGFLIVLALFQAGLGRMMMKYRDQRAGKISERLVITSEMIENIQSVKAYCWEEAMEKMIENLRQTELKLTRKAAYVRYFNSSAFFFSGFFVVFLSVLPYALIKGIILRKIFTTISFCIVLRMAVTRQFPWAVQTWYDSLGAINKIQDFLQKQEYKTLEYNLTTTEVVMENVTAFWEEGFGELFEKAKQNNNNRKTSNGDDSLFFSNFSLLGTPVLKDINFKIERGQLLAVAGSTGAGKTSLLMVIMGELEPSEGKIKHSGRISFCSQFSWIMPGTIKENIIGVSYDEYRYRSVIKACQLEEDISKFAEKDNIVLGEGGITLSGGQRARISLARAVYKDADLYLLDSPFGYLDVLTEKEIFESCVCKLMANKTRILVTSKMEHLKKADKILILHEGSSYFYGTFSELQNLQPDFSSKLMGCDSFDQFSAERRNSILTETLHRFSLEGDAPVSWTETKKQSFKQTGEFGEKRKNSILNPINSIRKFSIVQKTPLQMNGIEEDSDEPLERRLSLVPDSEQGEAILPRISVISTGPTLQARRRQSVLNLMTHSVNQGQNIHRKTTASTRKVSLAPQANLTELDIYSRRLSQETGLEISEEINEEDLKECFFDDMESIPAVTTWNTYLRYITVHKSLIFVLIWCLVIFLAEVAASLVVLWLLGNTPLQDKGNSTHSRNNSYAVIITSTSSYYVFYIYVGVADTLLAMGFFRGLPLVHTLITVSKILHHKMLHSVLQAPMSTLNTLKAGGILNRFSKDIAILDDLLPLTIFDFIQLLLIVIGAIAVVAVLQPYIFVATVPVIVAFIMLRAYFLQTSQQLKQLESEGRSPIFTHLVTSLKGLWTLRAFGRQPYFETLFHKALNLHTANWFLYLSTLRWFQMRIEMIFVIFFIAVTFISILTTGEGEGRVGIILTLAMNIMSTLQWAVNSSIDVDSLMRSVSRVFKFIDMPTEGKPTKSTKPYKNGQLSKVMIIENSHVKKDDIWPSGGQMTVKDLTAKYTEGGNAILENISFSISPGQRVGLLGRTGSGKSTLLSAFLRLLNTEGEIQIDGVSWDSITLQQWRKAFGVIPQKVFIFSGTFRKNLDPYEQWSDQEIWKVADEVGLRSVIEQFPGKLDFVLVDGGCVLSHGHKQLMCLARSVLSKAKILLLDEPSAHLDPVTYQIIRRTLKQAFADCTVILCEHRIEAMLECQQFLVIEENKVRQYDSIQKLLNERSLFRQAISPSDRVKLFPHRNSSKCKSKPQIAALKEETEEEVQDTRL

| SMILES | EC50 (ΔF508 CFTR [1]) | minimal effective concentration (ypt1^ts cells) | EC50 (ΔF508 CFTR [2]) | glycosylated (Band B) ΔF508 CFTR protein vs absence of compound, dose response (ΔF508 CFTR [3]) | reduction of α-synuclein-induced cytotoxicity compared to control wells (TS217 cells) |
| --- | --- | --- | --- | --- | --- |
| CC(=O)Nc1ncnc2c1c(-c1ccc(Cl)cc1)nn2C(C)(C)C [Compound No. 2, N-[1-tert-Butyl-3-(4-chloro-phenyl)-1H-pyrazolo[3,4-d]pyrimidin-4-yl]-acetamide] | < 2 µM | > 50 µM | 5 to 10 µM | – | – |
| CC(C)(C)n1nc(Cc2cccc3ccccc23)c2c(N)ncnc21 [compound 5] | – | < 10 µM | > 15 µM | increased | – |
| CC(C)(C)n1nc(-c2cccc(Cl)c2)c2c(N)ncnc21 [compound 10] | < 2 µM | > 50 µM | > 15 µM | – | – |
| CCn1nc(-c2ccc(Cl)cc2)c2c(N)ncnc21 [compound 31] | > 15 µM | < 10 µM | 5 to 10 µM | – | – |
| Nc1ncnc2c1c(-c1ccc(Cl)cc1)nn2C1CCC1 [compound 33] | < 2 µM | 10 to 50 µM | 5 to 10 µM | – | – |
| Nc1ncnc2c1c(-c1ccc(Cl)cc1)nn2C1CCCC1 [compound 34] | < 2 µM | 10 to 50 µM | – | – | – |
| CC(C)(C)n1nc(-c2ccc(F)cc2)c2c(NC(=O)c3ccccc3)ncnc21 [compound 40, N-[1-tert-Butyl-3-(4-fluoro-phenyl)-1H-pyrazolo[3,4-d]pyrimidin-4-yl]-benzamide] | – | > 50 µM | > 15 µM | – | – |
| Cc1cc(-c2nn(C(C)(C)C)c3ncnc(N)c23)ccc1F [compound 41] | – | > 50 µM | > 15 µM | – | – |
| CCn1cc(-c2ccc(C)cc2)c2c(N)cccc21 [compound 43, 1-Ethyl-3-p-tolyl-1H-indol-4-ylamine] | > 15 µM | > 50 µM | > 15 µM | – | – |
| CCn1nc(-c2ccc(C)cc2)c2c(N)cccc21 [compound 44, 1-Ethyl-3-p-tolyl-1H-indazol-4-ylamine] | > 15 µM | > 50 µM | > 15 µM | – | – |
| COC(=O)c1cnc2c(c(-c3ccc(C)cc3)nn2C(C)(C)C)c1N [compound 46] | > 15 µM | > 50 µM | > 15 µM | – | – |
| CNC(=O)c1cnc2c(c(-c3ccc(C)cc3)nn2C(C)(C)C)c1N [compound 47] | > 15 µM | > 50 µM | > 15 µM | – | – |
| CCn1nc(-c2ccc(Cl)cc2)c2c(NC(C)=O)ncnc21 [compound 53] | – | > 50 µM | 5 to 10 µM | – | – |
| Nc1ncnc2c1c(Cc1cccc3ccccc13)nn2C1CCC1 [compound 74] | – | < 10 µM | > 15 µM | – | – |
| Nc1ncnc2c1c(Cc1cccc3ccccc13)nn2C1CCCC1 [compound 77] | – | < 10 µM | > 15 µM | – | – |
| CCn1nc2cccc(N)c2c1-c1ccc(C)cc1 [compound 80] | > 15 µM | > 50 µM | > 15 µM | – | – |
| CCn1cc(-c2ccc(C)cc2)c2c(N)ncnc21 [compound 86] | 5 to 10 µM | 10 to 50 µM | 2 to 5 µM | – | – |
| CC(C)(C)n1nc(Oc2ccccc2)c2c(N)ncnc21 [compound 90, 1-tert-Butyl-3-phenoxy-1H-pyrazolo[3,4-d]pyrimidin-4-ylamine] | < 2 µM | > 50 µM | > 15 µM | – | 45% |
